Data: patent publication US20230398130A1, “METHODS AND COMPOSITIONS FOR DIFFERENTIATING STEM CELLS” (Massachusetts Institute of Technology, priority 2020, published 2023)

Columns and labels:
ISC-enriched organoids [1] = assay: Primary screen, 384-well 2.5-D organoid differentiation (ENR+CD, 6 days): carbachol-induced lysozyme secretion (LYZ.S); type: cell-based, murine; conditions: for Dose.FC.LYZ.S: FC vs plate median; for Dose.FC.LYZ.S (log 2 fold change): vs plate median; for Z.LYZ.S: standard z score; for SSMD.LYZ.S: strictly standardized mean difference
Excerpt: (§1) High-throughput screening.

ISC-enriched organoids [2] = assay: Primary screen, 384-well 2.5-D organoid differentiation (ENR+CD, 6 days, Target Selective Inhibitor Library, vs whole-plate median): ATP (CellTiter-Glo 3D, CTG); conditions: for Dose.FC.CTG: FC vs plate median; for Dose.FC.CTG (log 2 fold change): vs plate median; for SSMD.CTG: strictly standardized mean difference
ISC-enriched organoids [3] = assay: Primary screen, 384-well 2.5-D organoid differentiation (ENR+CD, 6 days): basal lysozyme secretion (LYZ.NS); type: cell-based, murine; conditions: for Dose.FC.LYZ.NS: FC vs plate median; for Dose.FC.LYZ.NS (log 2 fold change): vs plate median; for SSMD.LYZ.NS: strictly standardized mean difference
Excerpt: as §1

[4] = Dose 0.08 uM, standard z score of FC
[5] = Dose 0.40 uM, standard z score of FC
[6] = Dose 2.00 uM, standard z score of FC
[7] = Dose 10.00 uM, standard z score of FC
[8] = dose 0.08 uM (1st of 4 lines per treatment; dose not printed in this part)
[9] = dose 0.40 uM (2nd of 4 lines per treatment; dose not printed in this part)
[10] = dose 2.00 uM (3rd of 4 lines per treatment; dose not printed in this part)
[11] = dose 10.00 uM (4th of 4 lines per treatment; dose not printed in this part)
[12] = primary screen, dose 0.08 uM, ENR+CD 6 days
[13] = primary screen, dose 0.40 uM, ENR+CD 6 days
[14] = primary screen, dose 2.00 uM, ENR+CD 6 days
[15] = primary screen, dose 10.00 uM, ENR+CD 6 days
[16] = primary screen, dose 0.08 uM, standard z score of FC
[17] = primary screen, dose 0.40 uM, standard z score of FC
[18] = primary screen, dose 2.00 uM, standard z score of FC
[19] = primary screen, dose 10.00 uM, standard z score of FC
[20] = primary screen, 1st of the 4 dose lines of the treatment (dose not given)
[21] = primary screen, 2nd of the 4 dose lines of the treatment (dose not given)
[22] = primary screen, 3rd of the 4 dose lines of the treatment (dose not given)
[23] = primary screen, 4th of the 4 dose lines of the treatment (dose not given)
[24] = Dose 0.08 uM, primary screen, standard z score
[25] = Dose 0.40 uM, primary screen, standard z score
[26] = Dose 2.00 uM, primary screen, standard z score
[27] = Dose 10.00 uM, primary screen, standard z score

CNC(=O)c1cc(Oc2ccc(NC(=O)Nc3cc(C(C)(C)C)nn3-c3ccc4ncccc4c3)c(F)c2)ccn1 [DCC-2036 (Rebastinib)]
Dose.FC.LYZ.S (ISC-enriched organoids [1]; Dose 0.08 uM, ENR+CD, 6 days): 0.358 log 2 fold change | Dose.FC.LYZ.S (ISC-enriched organoids [1]; Dose 0.40 uM, ENR+CD, 6 days): 0.186 log 2 fold change | Dose.FC.LYZ.S (ISC-enriched organoids [1]; Dose 2.00 uM, ENR+CD, 6 days): 0.054 log 2 fold change | Dose.FC.LYZ.S (ISC-enriched organoids [1]; Dose 10.00 uM, ENR+CD, 6 days): −0.244 log 2 fold change | Dose.FC.CTG (ISC-enriched organoids [2]; Dose 0.08 uM, ENR+CD, 6 days): 0.216 log 2 fold change | Z.CTG (ISC-enriched organoids [2]; [4]): 0.516 | Dose.FC.CTG (ISC-enriched organoids [2]; Dose 0.40 uM, ENR+CD, 6 days): 0.218 log 2 fold change | Z.CTG (ISC-enriched organoids [2]; [5]): 0.520 | Dose.FC.CTG (ISC-enriched organoids [2]; Dose 2.00 uM, ENR+CD, 6 days): −0.038 log 2 fold change | Z.CTG (ISC-enriched organoids [2]; [6]): −0.091 | Dose.FC.CTG (ISC-enriched organoids [2]; Dose 10.00 uM, ENR+CD, 6 days): −0.322 log 2 fold change | Z.CTG (ISC-enriched organoids [2]; [7]): −0.769 | Dose.FC.LYZ.NS (ISC-enriched organoids [3]; Dose 0.08 uM, ENR+CD, 6 days): 0.259 log 2 fold change | Z.LYZ.NS (ISC-enriched organoids [3]; [4]): 2.256 | Dose.FC.LYZ.NS (ISC-enriched organoids [3]; Dose 0.40 uM, ENR+CD, 6 days): 0.128 log 2 fold change | Z.LYZ.NS (ISC-enriched organoids [3]; [5]): 1.116 | Dose.FC.LYZ.NS (ISC-enriched organoids [3]; Dose 2.00 uM, ENR+CD, 6 days): 0.073 log 2 fold change | Z.LYZ.NS (ISC-enriched organoids [3]; [6]): 0.637 | Dose.FC.LYZ.NS (ISC-enriched organoids [3]; Dose 10.00 uM, ENR+CD, 6 days): −0.209 log 2 fold change | Z.LYZ.NS (ISC-enriched organoids [3]; [7]): −1.823

O=C(O)c1ccc(N2C(=O)/C(=C\c3ccc(-c4ccc([N+](=O)[O-])cc4)o3)C=C2c2ccccc2)cc1 [4E1RCat]
SSMD.LYZ.S_Rep (strictly standardized mean difference) (ISC-enriched organoids [1]; [8]): 0.712 | Z.LYZ.S (standard z score) (ISC-enriched organoids [1]; [8]): 0.690 | SSMD.LYZ.S_Rep (strictly standardized mean difference) (ISC-enriched organoids [1]; [9]): 0.185 | Z.LYZ.S (standard z score) (ISC-enriched organoids [1]; [9]): 0.247 | SSMD.LYZ.S_Rep (strictly standardized mean difference) (ISC-enriched organoids [1]; [10]): 0.311 | Z.LYZ.S (standard z score) (ISC-enriched organoids [1]; [10]): 0.316 | SSMD.LYZ.S_Rep (strictly standardized mean difference) (ISC-enriched organoids [1]; [11]): 0.321 | Z.LYZ.S (standard z score) (ISC-enriched organoids [1]; [11]): 0.530 | Dose.FC.LYZ.S (ISC-enriched organoids [1]; [12]): 0.107 log 2 fold change | Dose.FC.LYZ.S (ISC-enriched organoids [1]; [13]): 0.038 log 2 fold change | Dose.FC.LYZ.S (ISC-enriched organoids [1]; [14]): 0.049 log 2 fold change | Dose.FC.LYZ.S (ISC-enriched organoids [1]; [15]): 0.082 log 2 fold change | SSMD.CTG_Rep (strictly standardized mean difference) (ISC-enriched organoids [2]; [8]): 0.790 | SSMD.CTG_Rep (strictly standardized mean difference) (ISC-enriched organoids [2]; [9]): 0.559 | SSMD.CTG_Rep (strictly standardized mean difference) (ISC-enriched organoids [2]; [10]): 0.022 | SSMD.CTG_Rep (strictly standardized mean difference) (ISC-enriched organoids [2]; [11]): −0.026 | Dose.FC.CTG (ISC-enriched organoids [2]; [12]): 0.246 log 2 fold change | Z.CTG (ISC-enriched organoids [2]; [16]): 0.587 | Dose.FC.CTG (ISC-enriched organoids [2]; [13]): 0.362 log 2 fold change | Z.CTG (ISC-enriched organoids [2]; [17]): 0.864 | Dose.FC.CTG (ISC-enriched organoids [2]; [14]): 0.006 log 2 fold change | Z.CTG (ISC-enriched organoids [2]; [18]): 0.015 | Dose.FC.CTG (ISC-enriched organoids [2]; [15]): −0.011 log 2 fold change | Z.CTG (ISC-enriched organoids [2]; [19]): −0.026 | SSMD.LYZ.NS_Rep (strictly standardized mean difference) (ISC-enriched organoids [3]; [8]): 0.883 | SSMD.LYZ.NS_Rep (strictly standardized mean difference) (ISC-enriched organoids [3]; [9]): −0.121 | SSMD.LYZ.NS_Rep (strictly standardized mean difference) (ISC-enriched organoids [3]; [10]): 0.437 | SSMD.LYZ.NS_Rep (strictly standardized mean difference) (ISC-enriched organoids [3]; [11]): 0.053 | Dose.FC.LYZ.NS (ISC-enriched organoids [3]; [12]): 0.100 log 2 fold change | Z.LYZ.NS (ISC-enriched organoids [3]; [16]): 0.874 | Dose.FC.LYZ.NS (ISC-enriched organoids [3]; [13]): −0.018 log 2 fold change | Z.LYZ.NS (ISC-enriched organoids [3]; [17]): −0.154 | Dose.FC.LYZ.NS (ISC-enriched organoids [3]; [14]): 0.151 log 2 fold change | Z.LYZ.NS (ISC-enriched organoids [3]; [18]): 1.316 | Dose.FC.LYZ.NS (ISC-enriched organoids [3]; [15]): 0.007 log 2 fold change | Z.LYZ.NS (ISC-enriched organoids [3]; [19]): 0.062

O=C(/C=C/c1ccccc1)NC(NC(=S)Nc1ccc(Cl)cc1)C(Cl)(Cl)Cl (stereo not shown) [Sal003]
Dose.FC.LYZ.S (log 2 fold change) (ISC-enriched organoids [1]; Dose 0.08 uM, primary screen): 0.092 | Dose.FC.LYZ.S (log 2 fold change) (ISC-enriched organoids [1]; Dose 0.40 uM, primary screen): 0.067 | Dose.FC.LYZ.S (log 2 fold change) (ISC-enriched organoids [1]; Dose 2.00 uM, primary screen): 0.040 | Dose.FC.LYZ.S (log 2 fold change) (ISC-enriched organoids [1]; Dose 10.00 uM, primary screen): −0.408 | Z.CTG (standard z score) (ISC-enriched organoids [2]; Dose 0.08 uM, primary screen): 0.456 | Dose.FC.CTG (log 2 fold change) (ISC-enriched organoids [2]; Dose 0.08 uM, primary screen): 0.191 | Z.CTG (standard z score) (ISC-enriched organoids [2]; Dose 0.40 uM, primary screen): 0.370 | Dose.FC.CTG (log 2 fold change) (ISC-enriched organoids [2]; Dose 0.40 uM, primary screen): 0.155 | Z.CTG (standard z score) (ISC-enriched organoids [2]; Dose 2.00 uM, primary screen): 0.468 | Dose.FC.CTG (log 2 fold change) (ISC-enriched organoids [2]; Dose 2.00 uM, primary screen): 0.196 | Z.CTG (standard z score) (ISC-enriched organoids [2]; Dose 10.00 uM, primary screen): −1.981 | Dose.FC.CTG (log 2 fold change) (ISC-enriched organoids [2]; Dose 10.00 uM, primary screen): −0.829 | Z.LYZ.NS (standard z score) (ISC-enriched organoids [3]; Dose 0.08 uM, primary screen): 1.013 | Dose.FC.LYZ.NS (log 2 fold change) (ISC-enriched organoids [3]; Dose 0.08 uM, primary screen): 0.116 | Z.LYZ.NS (standard z score) (ISC-enriched organoids [3]; Dose 0.40 uM, primary screen): 1.595 | Dose.FC.LYZ.NS (log 2 fold change) (ISC-enriched organoids [3]; Dose 0.40 uM, primary screen): 0.183 | Z.LYZ.NS (standard z score) (ISC-enriched organoids [3]; Dose 2.00 uM, primary screen): 0.670 | Dose.FC.LYZ.NS (log 2 fold change) (ISC-enriched organoids [3]; Dose 2.00 uM, primary screen): 0.077 | Z.LYZ.NS (standard z score) (ISC-enriched organoids [3]; Dose 10.00 uM, primary screen): −2.142 | Dose.FC.LYZ.NS (log 2 fold change) (ISC-enriched organoids [3]; Dose 10.00 uM, primary screen): −0.246

Oc1ccc2ccccc2c1SSc1c(O)ccc2ccccc12 [IPA-3]
Dose.FC.LYZ.S (ISC-enriched organoids [1]; Dose 0.08 uM, primary screen): 0.064 log 2 fold change | Dose.FC.LYZ.S (ISC-enriched organoids [1]; Dose 0.40 uM, primary screen): −0.031 log 2 fold change | Dose.FC.LYZ.S (ISC-enriched organoids [1]; Dose 2.00 uM, primary screen): 0.067 log 2 fold change | Dose.FC.LYZ.S (ISC-enriched organoids [1]; Dose 10.00 uM, primary screen): −0.054 log 2 fold change | Z.LYZ.S (ISC-enriched organoids [1]; [20]): 0.413 | Z.LYZ.S (ISC-enriched organoids [1]; [21]): −0.202 | Z.LYZ.S (ISC-enriched organoids [1]; [22]): 0.431 | Z.LYZ.S (ISC-enriched organoids [1]; [23]): −0.347 | SSMD.LYZ.S (ISC-enriched organoids [1]; [20]): 0.356 | SSMD.LYZ.S (ISC-enriched organoids [1]; [21]): −0.184 | SSMD.LYZ.S (ISC-enriched organoids [1]; [22]): 0.324 | SSMD.LYZ.S (ISC-enriched organoids [1]; [23]): −0.305 | Dose.FC.CTG (ISC-enriched organoids [2]; Dose 0.08 uM, primary screen): 0.219 log 2 fold change | Z.CTG (ISC-enriched organoids [2]; [24]): 0.524 | Dose.FC.CTG (ISC-enriched organoids [2]; Dose 0.40 uM, primary screen): −0.332 log 2 fold change | Z.CTG (ISC-enriched organoids [2]; [25]): −0.793 | Dose.FC.CTG (ISC-enriched organoids [2]; Dose 2.00 uM, primary screen): −0.084 log 2 fold change | Z.CTG (ISC-enriched organoids [2]; [26]): −0.202 | Dose.FC.CTG (ISC-enriched organoids [2]; Dose 10.00 uM, primary screen): −0.054 log 2 fold change | Z.CTG (ISC-enriched organoids [2]; [27]): −0.128 | SSMD.CTG (ISC-enriched organoids [2]; [20]): 0.818 | SSMD.CTG (ISC-enriched organoids [2]; [21]): −0.408 | SSMD.CTG (ISC-enriched organoids [2]; [22]): −0.316 | SSMD.CTG (ISC-enriched organoids [2]; [23]): −0.172 | Dose.FC.LYZ.NS (ISC-enriched organoids [3]; Dose 0.08 uM, primary screen): 0.004 log 2 fold change | Z.LYZ.NS (ISC-enriched organoids [3]; [24]): 0.031 | Dose.FC.LYZ.NS (ISC-enriched organoids [3]; Dose 0.40 uM, primary screen): 0.003 log 2 fold change | Z.LYZ.NS (ISC-enriched organoids [3]; [25]): 0.028 | Dose.FC.LYZ.NS (ISC-enriched organoids [3]; Dose 2.00 uM, primary screen): −0.001 log 2 fold change | Z.LYZ.NS (ISC-enriched organoids [3]; [26]): −0.010 | Dose.FC.LYZ.NS (ISC-enriched organoids [3]; Dose 10.00 uM, primary screen): −0.021 log 2 fold change | Z.LYZ.NS (ISC-enriched organoids [3]; [27]): −0.186 | SSMD.LYZ.NS (ISC-enriched organoids [3]; [20]): 0.027 | SSMD.LYZ.NS (ISC-enriched organoids [3]; [21]): 0.026 | SSMD.LYZ.NS (ISC-enriched organoids [3]; [22]): −0.008 | SSMD.LYZ.NS (ISC-enriched organoids [3]; [23]): −0.175
